From the NIST ThermoML archive (doi:10.1016/j.jct.2005.07.011)

Assay: excess molar enthalpy (molar enthalpy of mixing); xn = mol fraction of the nth substance listed
Settings: Liquid, Flow calorimetry

CCC(C)O (stereo not given) [butan-2-ol] + COC(=O)OC
Settings | excess molar enthalpy [kcal/mol]
298.15 K, 1000 kPa, x2 = 0.05 | 0.126
298.15 K, 1000 kPa, x2 = 0.1 | 0.237
298.15 K, 1000 kPa, x2 = 0.15 | 0.328
298.15 K, 1000 kPa, x2 = 0.2 | 0.4
298.15 K, 1000 kPa, x2 = 0.25 | 0.459
298.15 K, 1000 kPa, x2 = 0.3 | 0.5033
298.15 K, 1000 kPa, x2 = 0.35 | 0.5352
298.15 K, 1000 kPa, x2 = 0.4 | 0.5549
298.15 K, 1000 kPa, x2 = 0.45 | 0.5664
298.15 K, 1000 kPa, x2 = 0.5 | 0.568
298.15 K, 1000 kPa, x2 = 0.55 | 0.5595
298.15 K, 1000 kPa, x2 = 0.6 | 0.5407
298.15 K, 1000 kPa, x2 = 0.65 | 0.5126
298.15 K, 1000 kPa, x2 = 0.7 | 0.4758
298.15 K, 1000 kPa, x2 = 0.75 | 0.43
298.15 K, 1000 kPa, x2 = 0.8 | 0.3661
298.15 K, 1000 kPa, x2 = 0.9 | 0.2152
298.15 K, 1000 kPa, x2 = 0.95 | 0.1148
313.15 K, 100 kPa, x2 = 0.051 | 0.124
313.15 K, 100 kPa, x2 = 0.102 | 0.238
313.15 K, 100 kPa, x2 = 0.148 | 0.323
313.15 K, 100 kPa, x2 = 0.202 | 0.412
313.15 K, 100 kPa, x2 = 0.251 | 0.4757
313.15 K, 100 kPa, x2 = 0.352 | 0.5707
313.15 K, 100 kPa, x2 = 0.4 | 0.6006
313.15 K, 100 kPa, x2 = 0.45 | 0.6191
313.15 K, 100 kPa, x2 = 0.501 | 0.6252
313.15 K, 100 kPa, x2 = 0.551 | 0.6211
313.15 K, 100 kPa, x2 = 0.6 | 0.6077
313.15 K, 100 kPa, x2 = 0.649 | 0.5813
313.15 K, 100 kPa, x2 = 0.701 | 0.5413
313.15 K, 100 kPa, x2 = 0.749 | 0.4921
313.15 K, 100 kPa, x2 = 0.799 | 0.426
313.15 K, 100 kPa, x2 = 0.849 | 0.345
313.15 K, 100 kPa, x2 = 0.899 | 0.248
313.15 K, 100 kPa, x2 = 0.951 | 0.128
313.15 K, 1000 kPa, x2 = 0.051 | 0.127
313.15 K, 1000 kPa, x2 = 0.098 | 0.234
313.15 K, 1000 kPa, x2 = 0.149 | 0.328
313.15 K, 1000 kPa, x2 = 0.198 | 0.411
313.15 K, 1000 kPa, x2 = 0.251 | 0.4777
313.15 K, 1000 kPa, x2 = 0.348 | 0.5696
313.15 K, 1000 kPa, x2 = 0.4 | 0.5987
313.15 K, 1000 kPa, x2 = 0.451 | 0.6176
313.15 K, 1000 kPa, x2 = 0.501 | 0.6242
313.15 K, 1000 kPa, x2 = 0.551 | 0.6223
313.15 K, 1000 kPa, x2 = 0.6 | 0.6059
313.15 K, 1000 kPa, x2 = 0.649 | 0.5827
313.15 K, 1000 kPa, x2 = 0.701 | 0.542
313.15 K, 1000 kPa, x2 = 0.749 | 0.4932
313.15 K, 1000 kPa, x2 = 0.799 | 0.426
313.15 K, 1000 kPa, x2 = 0.85 | 0.346
313.15 K, 1000 kPa, x2 = 0.899 | 0.248
313.15 K, 1000 kPa, x2 = 0.951 | 0.126
313.15 K, 10000 kPa, x2 = 0.051 | 0.135
313.15 K, 10000 kPa, x2 = 0.1 | 0.248
313.15 K, 10000 kPa, x2 = 0.15 | 0.344
313.15 K, 10000 kPa, x2 = 0.2 | 0.425
313.15 K, 10000 kPa, x2 = 0.25 | 0.4896
313.15 K, 10000 kPa, x2 = 0.301 | 0.5404
313.15 K, 10000 kPa, x2 = 0.35 | 0.5784
313.15 K, 10000 kPa, x2 = 0.399 | 0.6045
313.15 K, 10000 kPa, x2 = 0.451 | 0.6203
313.15 K, 10000 kPa, x2 = 0.501 | 0.6251
313.15 K, 10000 kPa, x2 = 0.551 | 0.6178
313.15 K, 10000 kPa, x2 = 0.599 | 0.6019
313.15 K, 10000 kPa, x2 = 0.65 | 0.5699
313.15 K, 10000 kPa, x2 = 0.751 | 0.4739
313.15 K, 10000 kPa, x2 = 0.801 | 0.413
313.15 K, 10000 kPa, x2 = 0.851 | 0.335
313.15 K, 10000 kPa, x2 = 0.901 | 0.238
313.15 K, 10000 kPa, x2 = 0.949 | 0.127
328.15 K, 1000 kPa, x2 = 0.05 | 0.128
328.15 K, 1000 kPa, x2 = 0.1 | 0.244
328.15 K, 1000 kPa, x2 = 0.15 | 0.345
328.15 K, 1000 kPa, x2 = 0.201 | 0.428
328.15 K, 1000 kPa, x2 = 0.25 | 0.496
328.15 K, 1000 kPa, x2 = 0.302 | 0.5534
328.15 K, 1000 kPa, x2 = 0.352 | 0.5928
328.15 K, 1000 kPa, x2 = 0.402 | 0.6206
328.15 K, 1000 kPa, x2 = 0.45 | 0.6375
328.15 K, 1000 kPa, x2 = 0.502 | 0.6437
328.15 K, 1000 kPa, x2 = 0.551 | 0.6361
328.15 K, 1000 kPa, x2 = 0.603 | 0.6173
328.15 K, 1000 kPa, x2 = 0.653 | 0.5904
328.15 K, 1000 kPa, x2 = 0.7 | 0.5518
328.15 K, 1000 kPa, x2 = 0.751 | 0.496
328.15 K, 1000 kPa, x2 = 0.802 | 0.4279
328.15 K, 1000 kPa, x2 = 0.9 | 0.2527
328.15 K, 1000 kPa, x2 = 0.95 | 0.1345
